Literature values, collected in article PMC7465353, “Antioxidant Effects of PS5, a Peptidomimetic of Suppressor of Cytokine Signaling 1, in Experimental Atherosclerosis” (Antioxidants, 2020).

Tested on: VSMCs

## KIR peptide: peptide encompassing residues 52–67, i.e., kinase inhibitory region (KIR) of SOCS1 (DTHFRTFRSHADYRRI; UniProt O15524 52-67, looked up, fragment)
  VSMC migration, wound healing: significantly diminished the migration and proliferation
